Molecules are shown by their SMILES. Activity calls are given as the source filed them. No cut-off for these calls is given here.

For data set [1], the target named is 3',5'-cyclic-AMP phosphodiesterase 4B (Homo sapiens, UniProt Q07343). The experiment in a line: Inhibition of recombinant full length PDE4B (unknown origin) using FAM-cAMP as substrate at 1 uM preincubated with compound for compound for 15 mins followed by substrate addition and measured after 30 mins by Envision multilabel reader analysis relative to control. The conditions noted are these: time 45.0 min.
Sequence of 3',5'-cyclic-AMP phosphodiesterase 4B (Q07343 whole entry): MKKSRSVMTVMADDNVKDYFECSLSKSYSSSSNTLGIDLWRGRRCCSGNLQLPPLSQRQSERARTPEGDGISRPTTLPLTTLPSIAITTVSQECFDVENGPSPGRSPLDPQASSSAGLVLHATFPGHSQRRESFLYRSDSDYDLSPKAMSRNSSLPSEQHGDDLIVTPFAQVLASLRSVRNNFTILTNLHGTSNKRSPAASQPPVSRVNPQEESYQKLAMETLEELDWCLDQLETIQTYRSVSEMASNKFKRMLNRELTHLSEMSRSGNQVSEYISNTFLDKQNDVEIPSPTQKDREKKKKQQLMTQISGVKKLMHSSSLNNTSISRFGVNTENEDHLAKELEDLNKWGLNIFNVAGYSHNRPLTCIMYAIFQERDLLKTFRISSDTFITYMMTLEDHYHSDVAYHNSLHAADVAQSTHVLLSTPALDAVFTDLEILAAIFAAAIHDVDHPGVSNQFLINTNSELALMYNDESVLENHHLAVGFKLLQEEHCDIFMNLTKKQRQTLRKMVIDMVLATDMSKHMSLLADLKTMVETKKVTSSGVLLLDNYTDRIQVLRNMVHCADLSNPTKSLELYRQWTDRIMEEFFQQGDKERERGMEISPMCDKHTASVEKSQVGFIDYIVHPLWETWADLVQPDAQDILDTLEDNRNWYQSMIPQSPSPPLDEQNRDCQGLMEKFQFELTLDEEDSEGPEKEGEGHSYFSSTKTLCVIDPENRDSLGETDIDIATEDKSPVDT

Data set [2] deals with HepG2. Description: Cytotoxicity against human HepG2 cells assessed as reduction in cell viability incubated for 24 hrs by CCK-8 assay. The data set is classed as toxicity, cell-based. Particulars: hepg2, 24 h. For orientation: Tetrazolium dyes change colour on reduction, which living cells bring about.
Data set [3] concerns RAW264.7. The experiment in a line: Cytotoxicity against mouse RAW264.7 cells assessed as reduction in cell viability incubated for 24 hrs by CCK-8 assay. Type of data set: toxicity, cell-based. The conditions noted are these: raw264.7, 24 h.
The subject of data set [4] is HEK-293T. The experiment in a line: Cytotoxicity against human HEK293T cells assessed as reduction in cell viability incubated for 24 hrs by CCK-8 assay. Type of data set: toxicity, cell-based. Further details: concentration or dose not given beside the values.
The subject of data set [5] is Mus musculus. The experiment in a line: Anti-inflammatory activity against cigarette-smoke/LPS-induced COPD male C57BL/6 mouse model assessed as reduction in bronchiole thickness at 5 mg/kg pretreated with cigarette smoke exposure for 21 weeks with subsequent LPS induction twice on the first and 15th day followed by compound administration every day via gavage for 4 weeks by H and E staining based microscopic analysis. Type of data set: functional, organism-based.

For data set [6], the system named is Mus musculus. The experiment in a line: Anti-inflammatory activity against cigarette-smoke/LPS-induced COPD male C57BL/6 mouse model assessed as reduction in IL-6 level in BALF at 5 mg/kg pretreated with cigarette smoke exposure for 21 weeks with subsequent LPS induction twice on the first and 15th day followed by compound administration every day via gavage for 4 weeks. The data set is classed as functional, organism-based.

In data set [7] the test system is Mus musculus. Description: Anti-inflammatory activity against cigarette-smoke/LPS-induced COPD male C57BL/6 mouse model assessed as reduction in MMP9 level in BALF at 5 mg/kg pretreated with cigarette smoke exposure for 21 weeks with subsequent LPS induction twice on the first and 15th day followed by compound administration every day via gavage for 4 weeks. The data set is classed as functional, organism-based.

Data set [8] relates to Mus musculus. Description: Anti-inflammatory activity against cigarette-smoke/LPS-induced COPD male C57BL/6 mouse model assessed as reduction in TNF-alpha level in BALF at 5 mg/kg pretreated with cigarette smoke exposure for 21 weeks with subsequent LPS induction twice on the first and 15th day followed by compound administration every day via gavage for 4 weeks. Type of data set: functional, organism-based.

The test system of data set [9] is Mus musculus. Description: Anti-inflammatory activity against LPS-induced acute lung injury male BALB/c mouse model assessed as enlarged bronchiole tubes in lung at 4 mg/kg administered once a day via gavage for 7 days followed by LPS stimulation and measured after 24 hrs by H and E staining based microscopic analysis. The conditions noted are these: time 192.0 hrs. Type of data set: functional, organism-based.

Data set [10] concerns Mus musculus. Description: Anti-inflammatory activity against LPS-induced acute lung injury male BALB/c mouse model assessed as restoration of alveolar cavities in lung at 4 mg/kg administered once a day via gavage for 7 days followed by LPS stimulation and measured after 24 hrs by H and E staining based microscopic analysis. Type of data set: functional, organism-based. Particulars: time 192.0 hrs.

Data set [11] deals with Mus musculus. Description: Anti-inflammatory activity against cigarette-smoke/LPS-induced COPD male C57BL/6 mouse model assessed as decrease in collagen formation at 5 mg/kg pretreated with cigarette smoke exposure for 21 weeks with subsequent LPS induction twice on the first and 15th day followed by compound administration every day via gavage for 4 weeks by masson staining based microscopic analysis. Type of data set: functional, organism-based.

Data set [12] deals with Mus musculus. Description: Anti-inflammatory activity against LPS-induced acute lung injury male BALB/c mouse model assessed as restoration of alveolar septa in lung at 4 mg/kg administered once a day via gavage for 7 days followed by LPS stimulation and measured after 24 hrs by H and E staining based microscopic analysis. Type of data set: functional, organism-based. The conditions noted are these: time 192.0 hrs.

Data set [13] deals with Mus musculus. Description: Anti-inflammatory activity against LPS-induced acute lung injury male BALB/c mouse model assessed as relaxation of alveolar in lung at 4 mg/kg administered once a day via gavage for 7 days followed by LPS stimulation and measured after 24 hrs by H and E staining based microscopic analysis. Particulars: time 192.0 hrs. The data set is classed as functional, organism-based.

Data set [14] has as its system Mus musculus. Description: Antifibrotic activity against LPS-induced acute lung injury male BALB/c mouse model assessed as decrease in collagen deposition at 4 mg/kg administered once a day via gavage for 7 days followed by LPS stimulation and measured after 24 hrs by masson staining based microscopic analysis. The conditions noted are these: time 192.0 hrs. The data set is classed as functional, organism-based.

In data set [15] the target is Phosphodiesterase 4 (Homo sapiens, UniProt P27815+Q08499+Q07343+Q08493). The experiment in a line: Inhibition of PDE4 (unknown origin). The data set is classed as protein assay.
The nature of data set [16]: Inhibition of PDE3 (unknown origin). More on the design: species or system Homo sapiens.

For `O=C(NCc1cnccn1)c1cccc2[nH]c(-c3ccc(OC(F)F)c(OCC4CC4)c3)nc12`, the inhibition in [1] is 93.3%.

Consider `O=C(Nc1nc2ccccc2s1)c1cccc2[nH]c(-c3ccc(OC(F)F)c(OCC4CC4)c3)nc12`, for which, in data set [1], the inhibition was 53.1%.

With `O=C(NCc1ncccn1)c1ccc2[nH]c(-c3ccc(OC(F)F)c(OCC4CC4)c3)nc2c1`, in data set [1], the inhibition is 62.3%.

For the compound `O=C(NCc1ncccn1)c1cccc2[nH]c(-c3ccc(OC(F)F)c(OCC4CC4)c3)nc12`, in [1], the inhibition stood at 95.5%.

Take `FC(F)Oc1ccc(-c2nc3cc(-c4ccncc4)ccc3[nH]2)cc1OCC1CC1`: the inhibition in data set [1] came out at 81.4%.

`O=C(NCC1CCOCC1)c1cccc2[nH]c(-c3ccc(OC(F)F)c(OCC4CC4)c3)nc12`: in data set [1], the inhibition is 94.6%.

Regarding `Cn1cc(NC(=O)c2cccc3[nH]c(-c4ccc(OC(F)F)c(OCC5CC5)c4)nc23)cn1`, the inhibition in data set [1] came out at 93.6%. In addition, the Activity result in data set [2] and in data set [3] was “Non-toxic” throughout.

With `Cn1ccc(NC(=O)c2cccc3[nH]c(-c4ccc(OC(F)F)c(OCC5CC5)c4)nc23)n1`, in data set [1], the inhibition stood at 94.1%.

With `COc1ccc(-c2ccc3[nH]c(-c4ccc(OC(F)F)c(OCC5CC5)c4)nc3c2)cc1OC`, in data set [1], the inhibition turned out to be 80.9%.

Turning to `Cc1nc2ccc(NC(=O)c3cccc4[nH]c(-c5ccc(OC(F)F)c(OCC6CC6)c5)nc34)cc2s1`, in data set [1], the inhibition amounted to 56.8%.

As for `COc1ccc(CNC(=O)c2cccc3[nH]c(-c4ccc(OC(F)F)c(OCC5CC5)c4)nc23)cn1`, the inhibition in data set [1] was 93.4%. Moreover, the Activity result in [3] was “Non-toxic”.

With `O=C(Nc1cccnc1)c1cccc2[nH]c(-c3ccc(OC(F)F)c(OCC4CC4)c3)nc12`, the inhibition in [1] amounted to 90.1%. In addition, the Activity entry in [2] and in data set [3] was “Non-toxic” in each case.

For the compound `COc1ccc(-c2nc3cc(C(=O)NCc4ncccn4)ccc3[nH]2)cc1OCC1CC1`, in data set [1], the inhibition worked out at 42.5%.

For the compound `COc1ccc(-c2nc3cc(C(=O)NCc4ccc(F)cc4F)ccc3[nH]2)cc1OCC1CC1`, the inhibition in data set [1] is 23.3%.

Take `O=C(NCc1ccc(F)c(F)c1)c1cccc2[nH]c(-c3ccc(OC(F)F)c(OCC4CC4)c3)nc12`: the inhibition in data set [1] worked out at 90.6%. Besides, the Activity result is “Non-toxic” in data set [3] and over 70% in data set [4].

For `O=C(Nc1ccccc1)c1cccc2[nH]c(-c3ccc(OC(F)F)c(OCC4CC4)c3)nc12`, the inhibition in [1] amounted to 83.8%.

As to `O=C(NCc1ccc(F)cc1F)c1ccc2[nH]c(-c3ccc(OC(F)F)c(OCC4CC4)c3)nc2c1`, the inhibition in data set [1] stood at 24.8%.

As to `O=C(Nc1c(Cl)cncc1Cl)c1ccc(OC(F)F)c(OCC2CC2)c1`, the outcome in data set [5], in data set [6], in [7], in data set [8], in data set [9] and in [10] was Active. In addition, the outcome in data set [11], in data set [12], in data set [13] and in data set [14] was Active.

With `O=C(NCc1c(F)cc(F)cc1F)c1cccc2[nH]c(-c3ccc(OC(F)F)c(OCC4CC4)c3)nc12`, in data set [1], the inhibition was 88.6%.

In the case of `O=C(NCc1ccccc1)c1cccc2[nH]c(-c3ccc(OC(F)F)c(OCC4CC4)c3)nc12`, in [1], the inhibition was 92.2%. Further, the Activity result is given as “Non-toxic” in [3] and over 70% in [4].

Regarding `COc1cc2c(cc1OC)-c1c/c(=N\c3c(C)cc(C)cc3C)n(CCNC(N)=O)c(=O)n1CC2` [ENSIFENTRINE], the IC50 in [15] was determined as 1479 nM; in data set [16] it was 0.4 nM.

As for `O=C(NCc1cc(F)ccc1F)c1cccc2[nH]c(-c3ccc(OC(F)F)c(OCC4CC4)c3)nc12`, in [1], the inhibition stood at 88.8%.

In the case of `O=C(Nc1ccc2ncsc2c1)c1cccc2[nH]c(-c3ccc(OC(F)F)c(OCC4CC4)c3)nc12`, the inhibition in [1] turned out to be 79.3%.

Turning to `O=C(NCc1cc(F)cc(F)c1)c1cccc2[nH]c(-c3ccc(OC(F)F)c(OCC4CC4)c3)nc12`, the inhibition in data set [1] came out at 82.4%.

Regarding `O=C(NCc1c(F)cccc1F)c1cccc2[nH]c(-c3ccc(OC(F)F)c(OCC4CC4)c3)nc12`, the inhibition in [1] was 94.4%. For the same compound, the values for the Activity result in [3] and in data set [4] were “Non-toxic” and over 70%, respectively.

For `O=C(NCc1cccnc1)c1cccc2[nH]c(-c3ccc(OC(F)F)c(OCC4CC4)c3)nc12`, the inhibition in [1] amounted to 91.1%. For the same compound, the Activity result in data set [3] is on record as “Non-toxic”.

Turning to `O=C(Nc1ccncc1)c1cccc2[nH]c(-c3ccc(OC(F)F)c(OCC4CC4)c3)nc12`, in data set [1], the inhibition is 65.6%.

Regarding `O=C(NCc1c(F)cc(F)cc1F)c1cccc2[nH]c(-c3ccc(OC(F)F)c(OC(F)F)c3)nc12`, the inhibition in [1] turned out to be 73.3%.

As to `O=C(Nc1ccccn1)c1cccc2[nH]c(-c3ccc(OC(F)F)c(OCC4CC4)c3)nc12`, the inhibition in data set [1] is 81.6%.

Consider `O=C(NCc1ccc(F)cc1F)c1cccc2[nH]c(-c3ccc(OC(F)F)c(OCC4CC4)c3)nc12`, for which the inhibition in data set [1] amounted to 94%. Further, the Activity result in data set [3] was “Non-toxic”; in data set [4] it was over 70%.

Take `O=S(=O)(c1ccccc1)n1cc(-c2ccc3[nH]c(-c4ccc(OC(F)F)c(OCC5CC5)c4)nc3c2)c2ccccc21`: in [1], the inhibition was determined as 25.8%.

As to `O=C(Nc1nccs1)c1cccc2[nH]c(-c3ccc(OC(F)F)c(OC(F)F)c3)nc12`, in data set [1], the inhibition is 68%.

For the compound `COc1ccc(-c2nc3cc(C(=O)Nc4ccc5ncsc5c4)ccc3[nH]2)cc1OCC1CC1`, the inhibition in [1] amounted to 49.2%.

Take `O=C(O)c1ccc(NNC(=O)c2cccc3[nH]c(-c4ccc(OC(F)F)c(OCC5CC5)c4)nc23)cc1`: the inhibition in [1] is 96.2%. Also, the Activity result in data set [2] and in [3] was “Non-toxic” in each case.

As to `N#Cc1ccc(NNC(=O)c2ccc3[nH]c(-c4ccc(OC(F)F)c(OCC5CC5)c4)nc3c2)cc1`, the inhibition in data set [1] turned out to be 76.2%.

Turning to `O=C(ON1C(=O)CCC1=O)c1ccc2[nH]c(-c3ccc(OC(F)F)c(OCC4CC4)c3)nc2c1`, the inhibition in data set [1] was found to be 62.2%.

For the compound `O=C(NCc1cccc(F)c1F)c1cccc2[nH]c(-c3ccc(OC(F)F)c(OCC4CC4)c3)nc12`, the inhibition in data set [1] was found to be 91.9%. Besides, the Activity result is recorded as “Non-toxic” in [3] and over 70% in data set [4].

`O=C(ON1C(=O)CCC1=O)c1cccc2[nH]c(-c3ccc(OC(F)F)c(OCC4CC4)c3)nc12`: the inhibition in [1] turned out to be 91.5%.

For `O=C(NCc1ccc2ccccc2c1)c1cccc2[nH]c(-c3ccc(OC(F)F)c(OCC4CC4)c3)nc12`, the inhibition in [1] was 90.1%. In addition, the Activity result in data set [2] and in data set [3] was “Non-toxic” in each case.

For `O=C(Nc1ccncc1)c1ccc2[nH]c(-c3ccc(OC(F)F)c(OCC4CC4)c3)nc2c1`, in [1], the inhibition is 62.3%.

For the compound `O=C(Nc1ccc2[nH]ccc2c1)c1cccc2[nH]c(-c3ccc(OC(F)F)c(OCC4CC4)c3)nc12`, in [1], the inhibition was 93.5%. Moreover, the Activity entry in data set [2] and in data set [3] was “Non-toxic” each time.

On to `O=C(NCc1ccccc1F)c1cccc2[nH]c(-c3ccc(OC(F)F)c(OCC4CC4)c3)nc12`, for which, in data set [1], the inhibition worked out at 85.2%.

Take `O=C(NCc1ccccn1)c1cccc2[nH]c(-c3ccc(OC(F)F)c(OCC4CC4)c3)nc12`: the inhibition in data set [1] stood at 93.9%. For the same compound, the Activity entry in data set [3] was “Non-toxic”.

As to `O=C(Nc1ccc2ncsc2c1)c1cccc2[nH]c(-c3ccc(OC(F)F)c(OC(F)F)c3)nc12`, the inhibition in data set [1] was 70.2%.

Broadly, the inhibition is the drop in the measured response relative to a control, in per cent. One may read the IC50 as the concentration needed to halve the response being measured.

For the origin of these results see ChEMBL document CHEMBL6121047, “Design, Synthesis, and Evaluation of Selective PDE4 Inhibitors for the Therapy of Pulmonary Injury” (J Med Chem, 2025).
